Results as given in patent US11021475B2, “Amide-substituted heterocyclic compounds useful as modulators of IL-12, IL-23 and/or IFN alpha responses” (Bristol-Myers Squibb Company, priority 2012, dated 2021).

How the values were obtained:
[1] = target: His-tagged protein corresponding to amino acids 575-869 of human Tyk2 (Homo sapiens (Human), UniProt P29597); assay: Probe displacement assay (scintillation proximity, radiolabeled probe); assay type: binding; conditions: 2.5 nM Tyk2 (575-869), 40 nM [3H] probe, 30 minutes at room temperature
Experimental: The probe displacement assay is conducted as follows: In a […], test compounds along with recombinantly expressed His-tagged protein corresponding to amino acids 575-869 of human Tyk2 (sequence shown below) at 2.5 nM, 40 nM ((R)—N-(1-(3-(8-methyl-5-(methylamino)-8H-imidazo[4,5-d]thiazolo[5,4-b]pyridin-2-yl)phenyl)ethyl)-2-([^3H]methylsulfonyl)benzamide) (preparation described below) and 80 μg/mL Copper His-Tag scintillation proximity assay beads (Perkin Elmer, Catalog #RPNQ0095) in 50 mM HEPES, pH 7.5, containing 100 μg/mL bovine serum albumin and 5% DMSO were incubated for 30 minutes at room temperature.
Protein Sequence of recombinant Hig-tagged Tyk2 (575-869):
The preparation of radiolabeled probe, (R)—N-(1-(3-(8-methyl-5-(methylamino)-8H-imidazo[4,5-d]thiazolo[5,4-b]pyridin-2-yl)phenyl)ethyl)-2-([^3H]methylsulfonyl)benzamide, was performed as described below.

[2] = test system: IL-23 stimulated Kit225 T cells (STAT-dependent luciferase reporter); assay: Kit225 T cell assay, IL-23-stimulated STAT-dependent luciferase reporter; assay type: cell-based, human; conditions: 20 ng/mL human recombinant IL-23, 5-6 hours; read-out: IL-23 Kit225 Reporter (IC50)
Procedure, shortened: (§1)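 Kit225 T cells carrying a stable STAT-dependent luciferase reporter, stimulated 5-6 h with 20 ng/mL human IL-23 or 200 U/mL human IFNα. Luminescence read out; % inhibition derived against unstimulated (100%) and no-inhibitor (0%) controls.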

[3] = test system: IFNα stimulated Kit225 T cells (STAT-dependent luciferase reporter); assay: Kit225 T cell assay, IFNα-stimulated STAT-dependent luciferase reporter; assay type: cell-based, human; conditions: 200 U/mL human recombinant IFNα, 5-6 hours; read-out: IFNα Kit225 Reporter (IC50)
Procedure, shortened: as §1

His-tagged protein corresponding to amino acids 575-869 of human Tyk2, sequence (P29597 other isoform, or with tags, fused parts or gaps): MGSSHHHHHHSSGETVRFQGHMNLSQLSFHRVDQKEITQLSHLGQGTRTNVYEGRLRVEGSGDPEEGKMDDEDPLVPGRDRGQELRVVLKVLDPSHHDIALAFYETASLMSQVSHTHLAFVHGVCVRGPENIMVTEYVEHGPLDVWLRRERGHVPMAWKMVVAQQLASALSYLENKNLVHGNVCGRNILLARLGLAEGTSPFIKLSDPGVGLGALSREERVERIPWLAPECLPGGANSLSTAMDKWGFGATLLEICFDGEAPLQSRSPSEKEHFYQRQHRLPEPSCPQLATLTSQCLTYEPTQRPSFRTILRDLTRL

Q: `CNC(=O)c1nnc(Nc2ccccn2)cc1Nc1cccc(-c2nnc(C)s2)c1OC` [Example 155] was tested. Which EC50 [1] did it give?
A: Its EC50 is 7.13 nM.

Q: What about the IC50 [2] of the same compound?
A: The IC50 was 30 nM.

Q: What about the IC50 [3] of the same compound?
A: Its IC50 is 30 nM.

Q: What does the source list for `CNC(=O)c1nnc(NC(=O)C2CC2)cc1Nc1cccc(-c2cnn(CCF)c2)c1OC` [Example 186]?
A: EC50 [1]: 60 nM; IC50 [2]: 170 nM; IC50 [3]: 80 nM

Q: Which results are given for `CNC(=O)c1nnc(Nc2cc(C(C)O)ccn2)cc1Nc1cccc(-c2ncn(C)n2)c1OC` (stereo not drawn) [Example 84]?
A: EC50 [1]: 1.28 nM; IC50 [2]: 20 nM; IC50 [3]: 9.39 nM

Q: For `CS(=O)(=O)c1ccccc1Nc1cc(Nc2ccc(F)cn2)nnc1C(=O)NC1CC1` [Example 5], which EC50 [1] is on record?
A: Its EC50 is 410 nM.

Q: What about the IC50 [2] of the same compound?
A: Its IC50 is 12500 nM.

Q: What about the IC50 [3] of the same compound?
A: Its IC50 is 6360 nM.

Q: How did the EC50 [1] turn out when `CNC(=O)c1nnc(Nc2cc(C)nc(COC)n2)cc1Nc1cccc(-c2ncn(C)n2)c1OC` [Example 114] was run?
A: Its EC50 is 1.89 nM.

Q: And the IC50 [2]?
A: Its IC50 is 8.29 nM.

Q: And the IC50 [3]?
A: Its IC50 is 3.77 nM.

Q: Which results are given for `CNC(=O)c1nnc(Nc2cnccn2)cc1Nc1cccc(-c2ncccn2)c1OC` [Example 112]?
A: EC50 [1]: 1.94 nM; IC50 [2]: 7.49 nM; IC50 [3]: 3.72 nM

Q: Which results are given for `CNC(=O)c1nnc(Nc2ccncn2)cc1Nc1cccc(-c2ncn(C)n2)c1OC` [Example 94]?
A: EC50 [1]: 1.72 nM; IC50 [2]: 30 nM; IC50 [3]: 8.59 nM

Q: Which results are given for `CNC(=O)c1nnc(NC(=O)C2CC2)cc1Nc1cccc(-c2ccc(C)nn2)c1OC` [Example 69]?
A: EC50 [1]: 70 nM; IC50 [2]: 380 nM; IC50 [3]: 160 nM

Q: How did the EC50 [1] turn out when `CNC(=O)c1nnc(NC(=O)C2CC2)cc1Nc1cccc(-c2ncn(CC(F)F)n2)c1OC` [Example 176] was run?
A: Its EC50 is 6.35 nM.

Q: What about the IC50 [2] of the same compound?
A: The IC50 was 40 nM.

Q: And the IC50 [3]?
A: The IC50 was 20 nM.

Q: Which results are given for `CNC(=O)c1nnc(NC(=O)C2CC2)cc1Nc1cccc(-c2cnc(C)s2)c1OC` [Example 160]?
A: EC50 [1]: 70 nM; IC50 [2]: 410 nM; IC50 [3]: 310 nM

Q: What does the source list for `CNC(=O)c1nnc(Nc2cc(NC(=O)C3CC3)nc(C)n2)cc1Nc1cccc(-c2ncn(C)n2)c1OC` [Example 134]?
A: EC50 [1]: 5.64 nM; IC50 [2]: 30 nM; IC50 [3]: 10 nM

Q: For `CNC(=O)c1nnc(NC(=O)C2CC2)cc1Nc1cccc(-c2nnn(C)n2)c1OC` [Example 146], which EC50 [1] is on record?
A: The EC50 was 1.7 nM.

Q: What about the IC50 [2] of the same compound?
A: Its IC50 is 10 nM.

Q: And the IC50 [3]?
A: Its IC50 is 5.33 nM.

Q: Which EC50 [1] does the source give for `CCNC(=O)c1nnc(Nc2ccc(F)cn2)cc1Nc1ccccc1S(C)(=O)=O` [Example 4] here?
A: Its EC50 is 130 nM.

Q: And the IC50 [2]?
A: Its IC50 is 2300 nM.

Q: What about the IC50 [3] of the same compound?
A: Its IC50 is 1150 nM.

Q: `CNC(=O)c1nnc(Nc2cc(C)nc(C)n2)cc1Nc1cccc(-c2nc(C)n(C)n2)c1OC` [Example 183] was tested. Which EC50 [1] did it give?
A: Its EC50 is 5.72 nM.

Q: And the IC50 [2]?
A: Its IC50 is 30 nM.

Q: What about the IC50 [3] of the same compound?
A: The IC50 was 3.67 nM.

Q: For `CNC(=O)c1nnc(Nc2ccccn2)cc1Nc1ccccc1S(C)(=O)=O` [Example 16], which EC50 [1] is on record?
A: Its EC50 is 6.57 nM.

Q: And the IC50 [2]?
A: The IC50 was 40 nM.

Q: And the IC50 [3]?
A: Its IC50 is 20 nM.

Q: How did the EC50 [1] turn out when `CNC(=O)c1nnc(Nc2cc(C)n(C)n2)cc1Nc1cccc(-c2cnn(C)c2)c1OC` [Example 85] was run?
A: The EC50 was 7.36 nM.

Q: What about the IC50 [2] of the same compound?
A: The IC50 was 170 nM.

Q: What about the IC50 [3] of the same compound?
A: The IC50 was 50 nM.

Q: Which EC50 [1] does the source give for `CNC(=O)c1nnc(Nc2ccccn2)cc1Nc1cccc(-c2nnn(C)n2)c1OC` [Example 147] here?
A: The EC50 was 0.877 nM.

Q: And the IC50 [2]?
A: Its IC50 is 1.01 nM.

Q: What about the IC50 [3] of the same compound?
A: Its IC50 is 4.42 nM.
